How the values were obtained:
XF498 = assay: Anticancer activity against human XF498 cells by sulforhodamine B assay; format: functional, cell-based
SK-MEL-2 = assay: Anticancer activity against human SK-MEL-2 cells by sulforhodamine B assay; format: functional, cell-based
A549 = assay: Anticancer activity against human A549 cells by sulforhodamine B assay; format: functional, cell-based
SK-OV-3 = assay: Anticancer activity against human SKOV3 cells by sulforhodamine B assay; format: functional, cell-based
Mus musculus = organism: Mus musculus; assay: Antiangiogenic activity in mouse assessed as inhibition of VEGF-induced angiogenesis at 10 uM by Matrigel plug assay; format: functional
HCT-15 = assay: Anticancer activity against human HCT15 cells by sulforhodamine B assay; format: functional, cell-based

Question: `C[C@@H]1CC[C@H]2[C@H](CBr)CO[C@@H]3O[C@]4(C)CC[C@@H]1[C@]32OO4` was tested. Which IC50 (XF498) did it give?
Answer: 16.4 µM

Question: What about the IC50 (SK-MEL-2) of the same compound?
Answer: 14.2 µM

Question: And the IC50 (A549)?
Answer: 11.2 µM

Question: And the IC50 (SK-OV-3)?
Answer: 15.4 µM

Question: What about the “inhibition (INH)” value (Mus musculus) of the same compound?
Answer: 95%

Question: And the IC50 (HCT-15)?
Answer: 11.2 µM

Question: With `COC(=O)[C@@H](CS)N(Cc1ccccc1)C(=O)CC[C@H]1O[C@@H]2O[C@]3(C)CC[C@H]4[C@H](C)CCC([C@H]1C)[C@@]24OO3` (stereo not given in full) as the compound, how does the IC50 (XF498) read?
Answer: 2.66 µM

Question: And the IC50 (SK-MEL-2)?
Answer: 3.15 µM

Question: What about the IC50 (A549) of the same compound?
Answer: 3.12 µM

Question: And the IC50 (SK-OV-3)?
Answer: 2.35 µM

Question: What about the IC50 (HCT-15) of the same compound?
Answer: 1.54 µM

Question: What does the source list for `C[C@@H]1CCC2[C@@H](C)[C@@H](CCC(=O)N3CCC(Cc4ccccc4)CC3)O[C@@H]3O[C@]4(C)CC[C@@H]1[C@@]23OO4` (stereo not given in full)?
Answer: IC50 (XF498): 1.95 µM; IC50 (SK-MEL-2): 1.25 µM; IC50 (A549): 1.35 µM; IC50 (SK-OV-3): 1.65 µM; IC50 (HCT-15): 1.45 µM

Question: Which IC50 (XF498) does the source give for `C[C@@H]1CCC2[C@@H](C)[C@@H](CCNC(=O)CC[C@H](NC(=O)CC[C@H]3O[C@@H]4O[C@]5(C)CC[C@H]6[C@H](C)CCC([C@H]3C)[C@@]46OO5)C(=O)NCC[C@H]3O[C@@H]4O[C@]5(C)CC[C@H]6[C@H](C)CCC([C@H]3C)[C@@]46OO5)O[C@@H]3O[C@]4(C)CC[C@@H]1[C@@]23OO4` (stereo not given in full) here?
Answer: 11.6 µM

Question: And the IC50 (SK-MEL-2)?
Answer: 18.2 µM

Question: And the IC50 (A549)?
Answer: 13.5 µM

Question: What about the IC50 (SK-OV-3) of the same compound?
Answer: 12.4 µM

Question: What about the “inhibition (INH)” value (Mus musculus) of the same compound?
Answer: 80%

Question: And the IC50 (HCT-15)?
Answer: 19.8 µM

Question: Which results are given for `C[C@@H]1CCC2[C@@H](C)[C@@H](CCNC(=O)CC[C@H]3O[C@@H]4O[C@]5(C)CC[C@H]6[C@H](C)CCC([C@H]3C)[C@@]46OO5)O[C@@H]3O[C@]4(C)CC[C@@H]1[C@@]23OO4` (stereo not given in full)?
Answer: IC50 (XF498): 5.76 µM; IC50 (SK-MEL-2): 9.94 µM; IC50 (A549): 7.63 µM; IC50 (SK-OV-3): 4.36 µM; IC50 (HCT-15): 7.83 µM

Question: Which results are given for `C[C@H]1[C@@H](CCSCC[C@H]2O[C@@H]3O[C@]4(C)CC[C@H]5[C@H](C)CCC([C@H]2C)[C@@]35OO4)O[C@@H]2O[C@]3(C)CCC4[C@H](C)CC[C@@H]1[C@]42OO3` (stereo not given in full)?
Answer: IC50 (XF498): 5.44 µM; IC50 (SK-MEL-2): 7.56 µM; IC50 (A549): 5.63 µM; IC50 (SK-OV-3): 4.86 µM; IC50 (HCT-15): 3.53 µM

Question: Which IC50 (XF498) does the source give for `C[C@@H]1CCC2[C@@H](C)[C@@H](CCC(=O)NCCCN3CCN(CCCNC(=O)CC[C@H]4O[C@@H]5O[C@]6(C)CC[C@H]7[C@H](C)CCC([C@H]4C)[C@@]57OO6)CC3)O[C@@H]3O[C@]4(C)CC[C@@H]1[C@@]23OO4` (stereo not given in full) here?
Answer: 0.46 µM

Question: And the IC50 (SK-MEL-2)?
Answer: 0.45 µM

Question: What about the IC50 (A549) of the same compound?
Answer: 0.85 µM

Question: And the IC50 (SK-OV-3)?
Answer: 0.63 µM

Question: And the IC50 (HCT-15)?
Answer: 0.84 µM

Question: For `C[C@@H]1CCC2[C@@H](C)[C@@H](CCC(=O)NCc3ccccc3)O[C@@H]3O[C@]4(C)CC[C@@H]1[C@@]23OO4` (stereo not given in full), which IC50 (XF498) is on record?
Answer: 3.46 µM

Question: And the IC50 (SK-MEL-2)?
Answer: 8.36 µM

Question: What about the IC50 (A549) of the same compound?
Answer: 5.13 µM

Question: What about the IC50 (SK-OV-3) of the same compound?
Answer: 4.75 µM

Question: What about the IC50 (HCT-15) of the same compound?
Answer: 6.22 µM

Question: Which IC50 (XF498) does the source give for `CO[C@H]1O[C@@H]2O[C@@]3(C)CC[C@H]4[C@H](C)CC[C@@H]([C@H]1C)[C@@]24OO3` [ARTEMETHER] here?
Answer: 9.1 µM

Question: And the IC50 (SK-MEL-2)?
Answer: 7.24 µM

Question: And the IC50 (A549)?
Answer: 8.54 µM

Question: What about the IC50 (SK-OV-3) of the same compound?
Answer: 8.03 µM

Question: What about the IC50 (HCT-15) of the same compound?
Answer: 9.66 µM

Question: Which IC50 (XF498) does the source give for `C[C@@H]1CC[C@H]2[C@@H](C)C(=O)O[C@@H]3O[C@@]4(C)CC[C@@H]1[C@]32OO4` [ARTEMISININ] here?
Answer: 16.2 µM

Question: And the IC50 (SK-MEL-2)?
Answer: 12.9 µM

Question: What about the IC50 (A549) of the same compound?
Answer: 15.2 µM

Question: What about the IC50 (SK-OV-3) of the same compound?
Answer: 14.3 µM

Question: What about the IC50 (HCT-15) of the same compound?
Answer: 17.2 µM

Question: Which IC50 (XF498) does the source give for `C[C@H]1[C@@H](O)O[C@@H]2O[C@@]3(C)CC[C@H]4[C@H](C)CC[C@@H]1[C@@]24OO3` [ARTENIMOL] here?
Answer: 0.54 µM

Question: And the IC50 (SK-MEL-2)?
Answer: 0.75 µM

Question: What about the IC50 (A549) of the same compound?
Answer: 0.63 µM

Question: And the IC50 (SK-OV-3)?
Answer: 0.85 µM

Question: What about the IC50 (HCT-15) of the same compound?
Answer: 0.46 µM

Question: How did the IC50 (SK-MEL-2) turn out when `COc1cccc2c1C(=O)c1c(O)c3c(c(O)c1C2=O)C[C@@](O)(C(=O)CO)C[C@@H]3O[C@H]1C[C@H](N)[C@H](O)[C@H](C)O1` [DOXORUBICIN] was run?
Answer: 0.028 µM

Question: And the IC50 (A549)?
Answer: 0.075 µM

Question: What about the IC50 (SK-OV-3) of the same compound?
Answer: 0.046 µM
